Assay results: US20060217360A1, “Tubulysin biosynthesis gene” (priority 2002, published 2006)
Converted amounts (≈) assume the structure as drawn.

Experiments:
Format in all cases: cell-based
[1] = tested on: Pt K2, Potorous tridactylis (ATCC CCL 56); test: Cytostatic action on animal cell line
L929, mouse (ATCC CCL1) = test: Cytostatic action on animal cell line
Botrytis cineria = test: Agar diffusion test, spectrum of action on fungi; settings: 20 μg per test disc of 6 mm diameter
HL-60 (ATCC-CCL 240) = test: Cytostatic action on human cancer cell line; settings: HL-60 human cancer cell line
KB-3-1 (DSM ACC 158) = test: Cytostatic action on human cancer cell line; settings: KB-3-1 human cancer cell line
Pythinum debaryanum = test: Agar diffusion test, spectrum of action on fungi; settings: 20 μg per test disc of 6 mm diameter
K-562 (ATCC CCL 243) = test: Cytostatic action on human cancer cell line; settings: K-562 human cancer cell line
Coprinus cinereus = test: Agar diffusion test, spectrum of action on fungi; settings: 20 μg per test disc of 6 mm diameter
Aspergillus niger = test: Agar diffusion test, spectrum of action on fungi; settings: 20 μg per test disc of 6 mm diameter

| SMILES | IC50 [1] [ng/mL] | IC50 (L929, mouse (ATCC CCL1)) [ng/mL] | Inhibition zone (Botrytis cineria) [mm] | IC50 (HL-60 (ATCC-CCL 240)) [ng/mL] | IC50 (KB-3-1 (DSM ACC 158)) [ng/mL] | Inhibition zone (Pythinum debaryanum) [mm] | IC50 (K-562 (ATCC CCL 243)) [ng/mL] | Inhibition zone (Coprinus cinereus) [mm] | Inhibition zone (Aspergillus niger) [mm] |
| --- | --- | --- | --- | --- | --- | --- | --- | --- | --- |
| CC[C@H](C)[C@H](NC(=O)[C@H]1CCCCN1C)C(=O)N(COC(=O)CC(C)C)[C@H](C[C@@H](OC(C)=O)c1nc(C(=O)N[C@@H](Cc2ccc(O)cc2)C[C@H](C)C(=O)O)cs1)C(C)C [Tubulysin A] | 0.2 (≈ 0.237 nM) | 0.2 (≈ 0.237 nM) | 23 | 0.04 (≈ 0.0474 nM) | 0.01 (≈ 0.0118 nM) | 20 | 0.1 (≈ 0.118 nM) | 20 | 20 |
| CCCC(=O)OCN(C(=O)[C@@H](NC(=O)[C@H]1CCCCN1C)[C@@H](C)CC)[C@H](C[C@@H](OC(C)=O)c1nc(C(=O)N[C@@H](Cc2ccc(O)cc2)C[C@H](C)C(=O)O)cs1)C(C)C [Tubulysin B] | 0.2 (≈ 0.241 nM) | 0.4 (≈ 0.482 nM) | 18 | 0.08 (≈ 0.0964 nM) | 0.02 (≈ 0.0241 nM) | – | 0.2 (≈ 0.241 nM) | – | 18 |
| CCC(=O)OCN(C(=O)[C@@H](NC(=O)[C@H]1CCCCN1C)[C@@H](C)CC)[C@H](C[C@@H](OC(C)=O)c1nc(C(=O)N[C@@H](Cc2ccc(O)cc2)C[C@H](C)C(=O)O)cs1)C(C)C [Tubulysin C] | 2 (≈ 2.45 nM) | 2 (≈ 2.45 nM) | – | 0.4 (≈ 0.49 nM) | 0.1 (≈ 0.123 nM) | – | 1.5 (≈ 1.84 nM) | – | – |
